# Experimental data published in US9549921B2, “Heterocyclic compounds and methods of use thereof for the treatment of hepatitis C” (priority 2014, dated 2017).
# Where two headings read alike, the source gives them in different places.
# What was measured:
# HCV replicon genotype 1a = assay: HCV replicon assay, genotype 1a (cell ELISA for NS3/4A); format: cell-based, hepatitis C virus
# Procedure, shortened: (§1)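 Stable neomycin-resistant replicon cell lines (genotype 1a or 1b) incubated 96 h with compound dilution series without G418. After washing and lysis, replication measured by cell ELISA for replicon-encoded NS3/4A protein; IC50 as % of DMSO control via four-parameter fit.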
# HCV replicon genotype 1b = assay: HCV replicon assay, genotype 1b (cell ELISA for NS3/4A); format: cell-based, hepatitis C virus; settings: Hepatitis C virus, 96 h, read-out: 1b IC50 (nM), HCV genotype 1b replicon cells, 96 hours incubation, NS3/4A ELISA readout, % of DMSO control
# Procedure, shortened: as §1
# [1] = Hepatitis C virus, 96 h, read-out: 1a IC50 (nM), HCV genotype 1a replicon cells, 96 hours incubation, NS3/4A ELISA readout, % of DMSO control
# [2] = read-out: 1a IC50, HCV genotype 1a replicon cells, 96 hours incubation, NS3/4A ELISA readout, % of DMSO control
SMILES,IC50 (HCV replicon genotype 1a; [1]),IC50 (HCV replicon genotype 1b),IC50 (HCV replicon genotype 1a; [2])
"CNC(=O)c1c(-c2ccc(F)cc2)oc2cc(N(C)S(C)(=O)=O)c([C@@H]3CCCN(C(=O)c4coc(-c5ccc(F)cc5)n4)C3)cc12 [Example 72, 2-(4-fluorophenyl)-5-(1-{[2-(4-fluorophenyl)-1,3-oxazol-4-yl]carbonyl}piperidin-3-yl)-N-methyl-6-[methyl(methylsulfonyl)amino]-1-benzofuran-3-carboxamide]",125 nM,23.6 nM,
"CNC(=O)c1c(-c2ccc(F)cc2)oc2cc(N(C)S(C)(=O)=O)c([C@H]3CCCN(C(=O)c4nc5ccc(F)cc5s4)C3)cc12 [Example 93, 5-{(3R)-1-[(6-fluoro-1,3-benzothiazol-2-yl)carbonyl]piperidin-3-yl}-2-(4-fluorophenyl)-N-methyl-6-[methyl(methylsulfonyl)amino]-1-benzofuran-3-carboxamide]",181 nM,102 nM,
"CNC(=O)c1c(-c2ccc(F)cc2)oc2cc(N(C)S(C)(=O)=O)c([C@H]3CCCN(C(=O)c4nc5ncccc5[nH]4)C3)cc12 [Example 36, (R)-5-(1-(1H-imidazo[4,5-b]pyridine-2-carbonyl)piperidin-3-yl)-2-(4-fluorophenyl)-N-methyl-6-(N-methylmethylsulfonamido)benzofuran-3-carboxamide]",269 nM,286 nM,
"CNC(=O)c1c(-c2ccc(F)cc2)oc2cc(N(C)S(C)(=O)=O)c([C@H]3CCCN(S(=O)(=O)Cc4ccc(F)c(F)c4)C3)cc12 [Example 84, 5-{(3R)-1-[(3,4-difluorobenzyl)sulfonyl]piperidin-3-yl}-2-(4-fluorophenyl)-N-methyl-6-[methyl(methylsulfonyl)amino]-1-benzofuran-3-carboxamide]",2.77 nM,3.04 nM,
"CNC(=O)c1c(-c2ccc(F)cc2)oc2cc(N(C)S(C)(=O)=O)c([C@@H]3CCCN(c4ncc(-c5ccc(F)cc5)o4)C3)cc12 (single isomer, unassigned) [Example 57, 2-(4-fluorophenyl)-5-(1-(5-(4-fluorophenyl)oxazol-2-yl)piperidin-3-yl)-N-methyl-6-(N-methylmethylsulfonamido)benzofuran-3-carboxamide]",,22.2 nM,19.9 nM
"CNC(=O)c1c(-c2ccc(F)cc2)oc2cc(N(C)S(C)(=O)=O)c([C@@H]3CCCN(C(=O)c4cc5cccc(OC)c5[nH]4)C3)cc12 (single isomer, unassigned) [Example 41, 2-(4-fluorophenyl)-5-(1-(7-methoxy-1H-indole-2-carbonyl)piperidin-3-yl)-N-methyl-6-(N-methylmethylsulfonamido)benzofuran-3-carboxamide]",,13.5 nM,30.7 nM
"CNC(=O)c1c(-c2ccc(F)cc2)oc2cc(N(C)S(C)(=O)=O)c([C@H]3CCCN(S(=O)(=O)c4ccccc4F)C3)cc12 [Example 136, 2-(4-fluorophenyl)-5-{(3R)-1-[(2-fluorophenyl)sulfonyl]piperidin-3-yl}-N-methyl-6-[methyl(methylsulfonyl)amino]-1-benzofuran-3-carboxamide]",58.5 nM,40.5 nM,
"CNC(=O)c1c(-c2ccc(F)cc2)oc2cc(N(C)S(C)(=O)=O)c([C@H]3CCCN(S(=O)(=O)Cc4ccc(F)cc4)C3)cc12 [Example 80, 5-{(3R)-1-[(4-fluorobenzyl)sulfonyl]piperidin-3-yl}-2-(4-fluorophenyl)-N-methyl-6-[methyl(methylsulfonyl)amino]-1-benzofuran-3-carboxamide]",3.17 nM,4.5 nM,
"CNC(=O)c1c(-c2ccc(F)cc2)oc2cc(N(C)S(C)(=O)=O)c([C@@H]3CCCN(C(=O)c4cc(-c5ccc(F)cc5)n[nH]4)C3)cc12 [Example 73, 2-(4-fluorophenyl)-5-(1-{[3-(4-fluorophenyl)-1H-pyrazol-5-yl]carbonyl}piperidin-3-yl)-N-methyl-6-[methyl(methylsulfonyl)amino]-1-benzofuran-3-carboxamide]",50.5 nM,23.4 nM,
